The values that follow come from patent US20160046618A1, “Cyclopropyl Fused Thiazin-2-Amine Compounds as Beta-Secretase Inhibitors and Methods of Use” (AMGEN INC., priority 2014, published 2016).

One experiment addresses Recombinant Cat D (Homo sapiens (Human), UniProt P07339). The experiment is described as follows: In vitro enzymatic Cathepsin D (Cat D) FRET assay. The class given is biochemical. The conditions noted are these: read-out: IC50 IP (μM) CatD. In short, it runs like this: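 Assay pH is 3.5 (0.05 M citrate, 5 mM CHAPS, 10% DMSO final) with Cat D from CHO cells. A 20 nM quenched peptide substrate is cleaved over one hour; the reaction is ended with Tris and read by fluorescence (ex 500, em 580 nm).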

Another experiment concerns the target human recombinant BACE1 (Homo sapiens (Human), UniProt P56817). The experiment is described as follows: In vitro enzymatic BACE1 FRET assay. The conditions noted are these: read-out: IC50 IP (μM) BACE1 enzyme. Format: biochemical. Summed up:
(§1)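 Protease purified by Ni-NTA chromatography; start with FRET substrate (50 nM); incubate 1 h; quench with Tris to neutral pH; read fluorescence ex 488 / em 590 nm.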

The test system of experiment [1] is Aβ40 in conditioned medium of cells stably expressing Amyloid Precursor Protein (APP). The experiment is described as follows: In vitro BACE-1 cell-based assay (Aβ40 sandwich ELISA). The conditions noted are these: read-out: IC50 IP (μM) BACE1 cell. Summed up:
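APP-expressing cells treated 24 h at 37 °C with compound in 10-point dose response (top 100 μM or 10 μM, 0.1% DMSO final). Secreted Aβ40 in conditioned medium quantified by sandwich ELISA (pAb40 capture, biotinylated 6E10 detection, time-resolved europium fluorescence); IC50 from percent inhibition versus concentration.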
In general terms: An ELISA detects its analyte on a solid surface through an enzyme-linked reagent.

In the next experiment the target is human recombinant BACE2 (Homo sapiens (Human), UniProt Q9Y5Z0). The experiment is described as follows: In vitro enzymatic BACE2 FRET assay. Format: biochemical. As to conditions: read-out: IC50 IP (μM) BACE2 enzyme. Summed up:
as §1

human recombinant BACE1, sequence (P56817 46-501): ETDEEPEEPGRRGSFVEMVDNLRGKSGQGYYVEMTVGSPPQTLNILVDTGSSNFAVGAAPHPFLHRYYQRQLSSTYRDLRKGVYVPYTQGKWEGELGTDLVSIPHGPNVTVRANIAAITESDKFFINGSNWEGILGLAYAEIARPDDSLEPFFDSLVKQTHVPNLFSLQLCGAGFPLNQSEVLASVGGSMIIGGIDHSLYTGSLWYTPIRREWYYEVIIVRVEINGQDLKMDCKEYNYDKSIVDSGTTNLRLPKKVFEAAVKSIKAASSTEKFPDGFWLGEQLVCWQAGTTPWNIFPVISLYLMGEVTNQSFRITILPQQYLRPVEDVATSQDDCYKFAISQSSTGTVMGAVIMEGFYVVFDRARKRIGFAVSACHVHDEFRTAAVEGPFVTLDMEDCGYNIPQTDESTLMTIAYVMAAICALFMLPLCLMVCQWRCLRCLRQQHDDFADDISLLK
Recombinant Cat D, sequence (P07339 65-412): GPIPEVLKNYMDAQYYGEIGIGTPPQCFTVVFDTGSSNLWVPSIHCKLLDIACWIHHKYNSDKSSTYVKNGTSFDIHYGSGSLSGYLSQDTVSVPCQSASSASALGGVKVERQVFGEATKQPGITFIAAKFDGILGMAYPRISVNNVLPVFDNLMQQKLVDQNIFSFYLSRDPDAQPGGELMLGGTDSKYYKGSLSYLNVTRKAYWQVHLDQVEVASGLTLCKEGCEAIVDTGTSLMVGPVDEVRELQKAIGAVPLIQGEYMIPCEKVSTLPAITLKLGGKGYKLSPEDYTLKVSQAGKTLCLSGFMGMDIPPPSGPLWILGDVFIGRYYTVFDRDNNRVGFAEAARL
human recombinant BACE2, sequence (Q9Y5Z0 63-518): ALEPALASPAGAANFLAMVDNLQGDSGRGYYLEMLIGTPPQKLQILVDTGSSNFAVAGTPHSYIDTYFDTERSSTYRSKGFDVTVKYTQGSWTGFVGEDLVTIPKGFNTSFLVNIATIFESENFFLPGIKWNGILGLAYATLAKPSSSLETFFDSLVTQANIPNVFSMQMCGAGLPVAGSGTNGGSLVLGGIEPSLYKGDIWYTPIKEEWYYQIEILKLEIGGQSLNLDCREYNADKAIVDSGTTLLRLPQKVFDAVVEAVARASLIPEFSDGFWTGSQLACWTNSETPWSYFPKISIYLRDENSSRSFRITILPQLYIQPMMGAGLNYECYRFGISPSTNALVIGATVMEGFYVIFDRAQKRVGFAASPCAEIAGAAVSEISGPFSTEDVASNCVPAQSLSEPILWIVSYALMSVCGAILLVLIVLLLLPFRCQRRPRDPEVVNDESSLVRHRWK

Consider `CNC(=O)/C=C/[C@]12C[C@H]1[C@@](CF)(c1cc(NC(=O)c3ccc(Cl)cn3)ccc1F)N=C(N)S2` [Example 760, N-(3-((1R,5S,6S)-3-amino-5-(fluoromethyl)-1-((E)-3-(methylamino)-3-oxoprop-1-en-1-yl)-2-thia-4-azabicyclo[4.1.0]hept-3-en-5-yl)-4-fluorophenyl)-5-chloropicolinamide], for which the IC50 at Recombinant Cat D is 779 µM; at human recombinant BACE1, 0.000415 µM; in experiment [1], 0.00265 µM; on human recombinant BACE2, below 0.00203 µM.
`CN(C)C(=O)/C=C/[C@]12C[C@H]1[C@@](CF)(c1cc(NC(=O)c3ccc(Cl)cn3)ccc1F)N=C(N)S2` [Example 761, N-(3-((1R,5S,6S)-3-amino-1-((E)-3-(dimethylamino)-3-oxoprop-1-en-1-yl)-5-(fluoromethyl)-2-thia-4-azabicyclo[4.1.0]hept-3-en-5-yl)-4-fluorophenyl)-5-chloropicolinamide]: the half-inhibitory concentration (IC50) on Recombinant Cat D is 364 µM; on human recombinant BACE1, 0.000794 µM; in experiment [1], 0.00152 µM; at human recombinant BACE2, below 0.00203 µM.
`C#CCOc1cnc2c(Nc3ccc(F)c([C@@]4(CF)N=C(N)S[C@H]5C[C@H]54)c3)nccc2n1` [Example 762, N-(3-((1S,5S,6S)-3-amino-5-(fluoromethyl)-2-thia-4-azabicyclo[4.1.0]hept-3-en-5-yl)-4-fluorophenyl)-2-(2-propyn-1-yloxy)pyrido[3,4-b]pyrazin-5-amine]: the IC50 is 669 µM at Recombinant Cat D, 0.00303 µM on human recombinant BACE1, 0.0142 µM in experiment [1] and 0.0384 µM at human recombinant BACE2.
In the same order, the values of `NC1=N[C@](CF)(c2cc(Nc3ncnc4cc(OCc5ncco5)cnc34)ccc2F)[C@@H]2C[C@@H]2S1` [Example 763, N-(3-((1S,5S,6S)-3-amino-5-(fluoromethyl)-2-thia-4-azabicyclo[4.1.0]hept-3-en-5-yl)-4-fluorophenyl)-7-(1,3-oxazol-2-ylmethoxy)pyrido[3,2-d]pyrimidin-4-amine] are 1110 µM, 0.00849 µM, 0.0048 µM and 0.239 µM.
For the molecule `NC1=N[C@](CF)(c2cc(NC(=O)c3ccc(Cl)cn3)ccc2F)[C@@H]2C[C@]2(/C=C/C(=O)N2CCOCC2)S1` [Example 764, N-(3-((1R,5S,6S)-3-amino-5-(fluoromethyl)-1-((E)-3-morpholino-3-oxoprop-1-en-1-yl)-2-thia-4-azabicyclo[4.1.0]hept-3-en-5-yl)-4-fluorophenyl)-5-chloropicolinamide], the IC50 at Recombinant Cat D was 518 µM; on human recombinant BACE1, 0.00073 µM; in experiment [1] it was 0.000856 µM; on human recombinant BACE2, below 0.00203 µM.
Turning to `CN(C)C(=O)CC[C@]12C[C@H]1[C@@](CF)(c1cc(NC(=O)c3ccc(Cl)cn3)ccc1F)N=C(N)S2` [Example 765, N-(3-((1S,5S,6S)-3-amino-1-(3-(dimethylamino)-3-oxopropyl)-5-(fluoromethyl)-2-thia-4-azabicyclo[4.1.0]hept-3-en-5-yl)-4-fluorophenyl)-5-chloropicolinamide], the IC50 on Recombinant Cat D is 1070 µM; on human recombinant BACE1, 0.000706 µM; in experiment [1] it was 0.0011 µM; on human recombinant BACE2 it was below 0.00203 µM.
For the molecule `COC1CN(C(=O)/C=C/[C@]23C[C@H]2[C@@](CF)(c2cc(NC(=O)c4ccc(Cl)cn4)ccc2F)N=C(N)S3)C1` [Example 766, N-(3-((1R,5S,6S)-3-amino-5-(fluoromethyl)-1-((E)-3-(3-methoxyazetidin-1-yl)-3-oxoprop-1-en-1-yl)-2-thia-4-azabicyclo[4.1.0]hept-3-en-5-yl)-4-fluorophenyl)-5-chloropicolinamide], the IC50 was 848 µM at Recombinant Cat D, 0.00105 µM on human recombinant BACE1, 0.0031 µM in experiment [1] and below 0.00203 µM on human recombinant BACE2.
Regarding `COCCNC(=O)/C=C/[C@]12C[C@H]1[C@@](CF)(c1cc(NC(=O)c3ccc(Cl)cn3)ccc1F)N=C(N)S2` [Example 767, N-(3-((1R,5S,6S)-3-amino-5-(fluoromethyl)-1-((E)-3-((2-methoxyethyl)amino)-3-oxoprop-1-en-1-yl)-2-thia-4-azabicyclo[4.1.0]hept-3-en-5-yl)-4-fluorophenyl)-5-chloropicolinamide], the IC50 at Recombinant Cat D was 602 µM; at human recombinant BACE1 it was 0.00102 µM; in experiment [1], 0.00143 µM; on human recombinant BACE2, below 0.00203 µM.
As for `C#CCOc1cnc2c(Nc3ccc(F)c([C@@]4(CF)N=C(N)S[C@@]5(/C=C/C(=O)N(C)C)C[C@H]54)c3)nccc2n1` [Example 768, (2E)-3-((1R,5S,6S)-3-amino-5-(fluoromethyl)-5-(2-fluoro-5-((2-(2-propyn-1-yloxy)pyrido[3,4-b]pyrazin-5-yl)amino)phenyl)-2-thia-4-azabicyclo[4.1.0]hept-3-en-1-yl)-N,N-dimethyl-2-propenamide], the IC50 is 406 µM on Recombinant Cat D, 0.00119 µM on human recombinant BACE1, 0.00113 µM in experiment [1] and 0.00612 µM on human recombinant BACE2.
In the case of `CN(C)C(=O)/C=C/[C@]12C[C@H]1[C@@](CF)(c1cc(Nc3nccc4nc(OCc5ncco5)cnc34)ccc1F)N=C(N)S2` [Example 769, (2E)-3-((1R,5S,6S)-3-amino-5-(fluoromethyl)-5-(2-fluoro-5-((2-(1,3-oxazol-2-ylmethoxy)pyrido[3,4-b]pyrazin-5-yl)amino)phenyl)-2-thia-4-azabicyclo[4.1.0]hept-3-en-1-yl)-N,N-dimethyl-2-propenamide], the IC50 was 224 µM at Recombinant Cat D, 0.00143 µM on human recombinant BACE1, 0.00121 µM in experiment [1] and 0.023 µM on human recombinant BACE2.
Turning to `CC#CCOc1cnc2c(Nc3ccc(F)c([C@@]4(CF)N=C(N)S[C@@]5(/C=C/C(=O)N(C)C)C[C@H]54)c3)nccc2c1` [Example 771, (2E)-3-((1R,5S,6S)-3-amino-5-(5-((3-(2-butyn-1-yloxy)-1,7-naphthyridin-8-yl)amino)-2-fluorophenyl)-5-(fluoromethyl)-2-thia-4-azabicyclo[4.1.0]hept-3-en-1-yl)-N,N-dimethyl-2-propenamide], the IC50 on Recombinant Cat D came out at 282 µM; at human recombinant BACE1 it was 0.00204 µM; in experiment [1] it was 0.00146 µM; on human recombinant BACE2, 0.0786 µM.
`NC1=N[C@](CF)(c2cc(NC(=O)c3ccc(Cl)cn3)ccc2F)[C@@H]2C[C@]2(/C=C/C(=O)N2CC(F)(F)C2)S1` [Example 772, N-(3-((1R,5S,6S)-3-amino-1-((1E)-3-(3,3-difluoro-1-azetidinyl)-3-oxo-1-propen-1-yl)-5-(fluoromethyl)-2-thia-4-azabicyclo[4.1.0]hept-3-en-5-yl)-4-fluorophenyl)-5-chloro-2-pyridinecarboxamide]: the IC50 at Recombinant Cat D is 82 µM; at human recombinant BACE1, 0.000429 µM; in experiment [1], 0.000972 µM; at human recombinant BACE2, below 0.00203 µM.
For `C#CCOc1cnc2c(Nc3ccc(F)c([C@@]4(CF)N=C(N)S[C@@]5(/C=C/C(=O)N6CC(F)(F)C6)C[C@H]54)c3)nccc2n1` [Example 773, N-(3-((1R,5S,6S)-3-amino-1-((1E)-3-(3,3-difluoro-1-azetidinyl)-3-oxo-1-propen-1-yl)-5-(fluoromethyl)-2-thia-4-azabicyclo[4.1.0]hept-3-en-5-yl)-4-fluorophenyl)-2-(2-propyn-1-yloxy)pyrido[3,4-b]pyrazin-5-amine] the same measures were 113 µM, 0.000423 µM, 0.00148 µM and below 0.00203 µM.

The IC50 is the concentration that inhibits the measured activity by half.
